In US20250099475A1, “METHODS OF TREATING HYPERTENSION BY PERIODIC SUPPRESSION OF ALDOSTERONE SYNTHASE” (Mineralys Therapeutics, Inc., priority 2022, published 2025):
Read-outs that look alike come from different tables or passages of the source.

Tests used:
[1] = Phase 1 part 1 single ascending dose: pharmacokinetics; assay type: in vivo, human; details: for half-life / Tmax: male, human, plasma, oral
Procedure: A 4-part, Phase 1 randomized, double-blind, placebo-controlled, first-in-human study was performed to determine the safety, tolerability, PK, and PD of single ascending doses (SADs; part 1) and multiple ascending doses (MADs; part 2) of Compound A HBr in healthy participants. The study also assessed whether there were sex (part 3) and age-related (part 4) effects on the PK of a single dose of Compound A HBr. The study was approved by the local independent ethics committee; the BEBO foundation in Assen, Netherlands; and the Central Committee on Research Involving Human Subjects in The Hague, Netherlands; and conducted according to the provisions of the Declaration of Helsinki. Written informed consent was obtained from each study participant before conducting any protocol-related procedures.
In part 1, Compound A HBr or placebo was administered to 64 healthy Caucasian men aged 18 to 55 years (inclusive) in 8 cohorts of 8 participants each. In each cohort, 6 participants were randomized to receive a single dose of Compound A HBr and 2 participants were randomized to receive matching placebo. All cohorts included 2 sentinel participants of whom 1 received Compound A HBr and 1 received matching placebo. The remaining 6 participants, of whom 5 received Compound A HBr and 1 received placebo, were dosed ≥24 hours following the sentinel participants. The dosing cohorts were 5, 10, 20, 50, 100, 200, 400, and 800 mg. Doses were administered in an ascending order per cohort, with a minimum 10-day interval between consecutive dose levels. Participants received a single dose of Compound A HBr or placebo in the fasted state.
Plasma PK parameters were derived by non-compartmental analysis using WinNonlin® (version 6.3). Dose proportionality was assessed using the power model with AUC0-∞, AUC0-last, and Cmax for part 1 (SAD) and with AUC0-last, AUC0-∞, AUC0-τ, and Cmax for part 2 (MAD). A linear model (ln(Y)=α+β×ln(X), where Y is the pharmacokinetic parameter and X is the dose) was used to fit the power model, after log-transformation of the parameters. Dose proportionality was concluded if the 95% confidence interval (CI) for slope (β) included the value 1.
An analytical method for the determination of Compound A in human plasma (dipotassium ethylenediaminetetraacetic acid [K2-EDTA]) and human urine using solid-phase extraction and high-performance liquid chromatography with mass spectrometric detection was successfully validated over the concentration range 0.1000 ng/mL (lower limit of quantification) to 100.0 ng/mL prior to initiation of the clinical trial. […] For all other analytes, validated quantitative measurement methods were used.

cardiovascular system [2] = assay: Cardiovascular system in telemetered monkeys; assay type: in vivo, cynomolgus monkey; details: single oral doses up to 100-mg/kg as free base
Procedure: Effects of Compound A on the cardiovascular system were evaluated with conscious telemetered cynomolgus monkeys. Single doses of 0, 10, 30, or 100 mg/kg of Compound A as free base were orally administered to four male monkeys in a Latin-square design with a 7-day interval between dosing. Blood pressure, heart rate, and electrocardiogram parameters (PR interval, QRS duration, QT interval, and QTcB) were evaluated up to 24 hours after each dosing.

cardiovascular system [3] = assay: Cardiovascular system in halothane-anesthetized dogs; assay type: in vivo, dog; details: intravenous infusion up to 3-mg/kg as free base; non-GLP
Procedure: Effects of Compound A on the cardiovascular system were evaluated with halothane-anesthetized dogs. Doses of 0, 0.3, 1, and 3 mg/kg of Compound A as free base were infused intravenously in ascending order to the same 3 male dogs at 0.1 mL/kg/min for 10 minutes cumulatively with 30 minutes interval between the start of infusion. Heart rate, systolic, diastolic, and mean blood pressure, cardiac output, total peripheral resistance, left ventricular end-diastolic pressure, maximum upstroke velocity of the left ventricular pressure, and electrocardiogram parameters (PR interval, QRS duration, QT interval, and QTcV) were evaluated.

## CC(=O)N[C@H]1CC[C@H](NC(=O)CN2CCN(c3nncc(-c4ccc(C)cc4)n3)CC2)CC1 [Compound A HBr]
[1]; single 5 mg, fasted, read-out: T 1/2, mean (SD) (converted)
  half-life: 8 h
[1]; single 10 mg, fasted, read-out: T 1/2, mean (SD) (converted)
  half-life: 8 h
[1]; single 10 mg, fasted, read-out: Tmax, median and range
  Tmax: 1.25 h
[1]; single 200 mg, fasted, read-out: Tmax, median and range
  Tmax: 1.25 h
[1]; single 400 mg, fasted, read-out: Tmax, median and range
  Tmax: 1.25 h
[1]; single 800 mg, fasted, read-out: T 1/2, mean (SD) (converted)
  half-life: 11 h
[1]; single doses 5 to 800 mg, read-out: Median Tmax values
  Tmax: 1 to 1.5 h
[1]; single doses 5 to 800 mg, read-out: mean t1/2 values
  half-life: 7.92 to 10.5 h
[1]; single 5 mg, fasted
  AUC0-inf, mean (SD): 231 (25) ng × h/mL
  Cmax, mean (SD): 37 (7) ng/mL
  Tmax, median and range: 1.5 (1-3) h
[1]; single 10 mg, fasted
  AUC0-inf, mean (SD): 451 (46) ng × h/mL
  Cmax, mean (SD): 76 (20) ng/mL
[1]; single 20 mg, fasted
  AUC0-inf, mean (SD): 768 (182) ng × h/mL
  Cmax, mean (SD): 141 (76) ng/mL
  Tmax, median and range: 1.5 (1-3) h
[1]; single 50 mg, fasted
  AUC0-inf, mean (SD): 2155 (258) ng × h/mL
  Cmax, mean (SD): 573 (206) ng/mL
  T 1/2, mean (SD): 9 (2) h
  Tmax, median and range: 1 (0.5-3) h
[1]; single 100 mg, fasted
  AUC0-inf, mean (SD): 5366 (493) ng × h/mL
  Cmax, mean (SD): 1211 (248) ng/mL
  Tmax, median and range: 1.5 (1-3) h
[1]; single 200 mg, fasted
  AUC0-inf, mean (SD): 10645 (3486) ng × h/mL
  Cmax, mean (SD): 2848 (1015) ng/mL
  T 1/2, mean (SD): 10 (4) h
[1]; single 400 mg, fasted
  AUC0-inf, mean (SD): 17257 (2907) ng × h/mL
  Cmax, mean (SD): 4455 (862) ng/mL
[1]; single 800 mg, fasted
  AUC0-inf, mean (SD): 29331 (3623) ng × h/mL
  Cmax, mean (SD): 7708 (1617) ng/mL
  Tmax, median and range: 1.5 (0.5-4) h
[1]; single doses 5 to 800 mg
  dose proportionality of AUC0-last and AUC0-∞: dose-proportional increase

## CC(=O)N[C@H]1CC[C@H](NC(=O)CN2CCN(c3nncc(-c4ccc(C)cc4)n3)CC2)CC1 [Compound A]
Cardiovascular system [2]
  effects on cardiovascular parameters (blood pressure, heart rate, electrocardiogram): no effects
Cardiovascular system [3]
  effects on the cardiovascular system: no effects
